Experimental data: PMC8268575 (International Journal of Molecular Sciences, 2021)

Tests used:
ACE2 [1] = assay: ACE2 activity (Mca-Ala-Pro-Lys(Dnp)-OH) after pro-inflammatory stimulation of HAoEC; type: cell-based, human; conditions: 16 h, 200 ng/mL LPS, 10 ng/mL TNFα or 5 ng/mL IL-1β, n = 4-6, p = 0.422
Protocol: (§1) Supplementary Material File S2. ACE2 activity measurement
(§2) HUVEC and HAoEC were seeded in a 6-well plate at a density of 2.5x10^5 cells per well in 2 mL full medium for 24 h. Cells were treated with 200 ng/mL LPS, 10 ng/mL TNFα, 5 ng/mL IL-1β or vehicle control for 16 h. Supernatants were collected and concentrated four times using Centriprep Centrifugal Filter Devices, 30 K (Merck-Millipore). Cells were collected per well and lysed 1 h on ice in 75 µL lysis buffer (1% octyl glucoside, 10 mM EDTA, 70 µg/mL aprotinin, 50 mM Tris pH 8.3).
(§3) ACE2 activity was measured using the substrate Mca-Ala-Pro-Lys(Dnp)-OH (Bachem).
(§4) Samples were incubated with 100 µM of the substrate at pH 6.5 (50 mM MES, 300 mM NaCl, 10 µM Zn Cl2, 0.01% Triton X-100) in a black 96-well plate and ACE2 activity was measured kinetically for 1 h at 37 °C (λex=320 nm, λem=405 nm), using the Infinite 200 microplate reader (Tecan) and the Magellan software was used to process the data. Concentration of the generated Mca-Ala-Pro was determined by means of a standard curve. Specificity was determined by pre-incubating the samples for 15 min with 1 µM of the specific ACE2-inhibitor DX600. The ACE2 activity is expressed as units per gram (U/g) protein for the cell lysate. […] Protein concentrations were determined via the Bradford method with BSA as the standard protein. […]

ACE2 [2] = assay: ACE2 activity (Mca-Ala-Pro-Lys(Dnp)-OH) after pro-inflammatory stimulation of HUVEC; type: cell-based, human; conditions: 16 h, 200 ng/mL LPS, 10 ng/mL TNFα or 5 ng/mL IL-1β, n = 4-6, p = 0.098
Protocol: as §1, §2, §3, §4

PRCP [3] = assay: PRCP activity (RP-HPLC, Z-Pro-Phe) after pro-inflammatory stimulation of HAoEC; type: cell-based, human; conditions: 16 h, 200 ng/mL LPS, 10 ng/mL TNFα or 5 ng/mL IL-1β; for PRCP activity in the cell lysate versus vehicle control: Kruskal-Wallis p = 0.563; for PRCP activity in the supernatant versus vehicle control: n = 4–6
Protocol: (§5) HUVEC and HAoEC were seeded in a 6-well plate at a density of 2.5 × 10^5 cells per well in 2 mL full medium for 24 h. Subsequently, cells were treated with 200 ng/mL LPS, 10 ng/mL TNFα, 5 ng/mL IL-1β, or vehicle control for 16 h. Subsequently, supernatants were collected and concentrated four times for PRCP activity measurements using Centriprep® Centrifugal Filter Devices, 30 K (Merck-Millipore, Burlington, MA, USA). For PRCP activity measurement, cells were collected per well and lysed 1 h on ice in 75 µL lysis buffer (1% octylglucoside, 10 mM EDTA, 70 µg/mL aprotinin, 50 mM Tris pH 8.3). Appropriate stimulation was confirmed by determining interleukin-6 (IL-6) and interleukin-8 (IL-8) levels in the 16 h aspirate by use of ELISA (Supplementary Materials File S7).
(§6) PRCP activity was measured in the cellular supernatant and cell lysate using a validated high-performance liquid chromatography (HPLC) method as described previously. Ten µL of each sample was incubated in duplicate with 75 µL 8 mM Z-Pro-Phe at pH 5 (0.1 M Natrium Acetate, 10 mM EDTA) for 2 h at 37 °C. To stop the enzymatic reaction, 75 µL stop solution (10% perchloric acid and 20% acetonitrile in purified water) was added and samples were centrifuged at 12,000× g for 10 min at 4 °C. Ten µL of the supernatant was injected into a reversed phase HPLC system (Shimadzu, Kioto, Japan) and the enzymatically formed Z-Pro was determined by its UV absorbance at 210 nm. Quantification was performed by peak height measurements. The PRCP activity is expressed as units per gram (U/g) protein for the cell lysate or units per liter (U/L) for the supernatant. One unit defines the amount of enzyme that hydrolyses 1 μmol of substrate per minute. Protein concentrations were determined via the Bradford method with bovine serum albumin as the standard protein. Statistical analyses were performed using SPSS software version 27 (IBM) and graphs were designed using Graphpad Prism 9 software. Differences in PRCP activity in the cell lysate and supernatant between control and stimulated cells were evaluated by Kruskal-Wallis and Mann-Whitney U-tests. Manual Bonferroni-correction was assessed for multiple testing based on relevant pairwise comparisons. Significant results are indicated with an asterisk (* p < 0.05, ** p < 0.01).

PRCP [4] = assay: PRCP activity (RP-HPLC, Z-Pro-Phe) after pro-inflammatory stimulation of HUVEC; type: cell-based, human; conditions: 16 h, 200 ng/mL LPS, 10 ng/mL TNFα or 5 ng/mL IL-1β; for PRCP activity in the cell lysate versus vehicle control: Kruskal-Wallis p = 0.066; for PRCP activity in the supernatant versus vehicle control: n = 4–6
Protocol: as §5, §6

[5] = HUVEC, 10,000 cells per well, in assay medium; supernatant analysed; conditions: human, 37 °C, up to 24 h
[6] = HAoEC, 10,000 cells per well, in assay medium; supernatant analysed; conditions: human, 37 °C, up to 24 h
recombinant human PREP = target: T1, recombinant human PREP (Homo sapiens, UniProt P48147); assay: Cleavage by recombinant PREP, MALDI-TOF/TOF; conditions: pH 7.4 (0.1 M potassium phosphate, 1 mM EDTA, 5 mM DTT), 100 µM substrate, 0 s to 1 h
T1 sequence (P48147 1-710): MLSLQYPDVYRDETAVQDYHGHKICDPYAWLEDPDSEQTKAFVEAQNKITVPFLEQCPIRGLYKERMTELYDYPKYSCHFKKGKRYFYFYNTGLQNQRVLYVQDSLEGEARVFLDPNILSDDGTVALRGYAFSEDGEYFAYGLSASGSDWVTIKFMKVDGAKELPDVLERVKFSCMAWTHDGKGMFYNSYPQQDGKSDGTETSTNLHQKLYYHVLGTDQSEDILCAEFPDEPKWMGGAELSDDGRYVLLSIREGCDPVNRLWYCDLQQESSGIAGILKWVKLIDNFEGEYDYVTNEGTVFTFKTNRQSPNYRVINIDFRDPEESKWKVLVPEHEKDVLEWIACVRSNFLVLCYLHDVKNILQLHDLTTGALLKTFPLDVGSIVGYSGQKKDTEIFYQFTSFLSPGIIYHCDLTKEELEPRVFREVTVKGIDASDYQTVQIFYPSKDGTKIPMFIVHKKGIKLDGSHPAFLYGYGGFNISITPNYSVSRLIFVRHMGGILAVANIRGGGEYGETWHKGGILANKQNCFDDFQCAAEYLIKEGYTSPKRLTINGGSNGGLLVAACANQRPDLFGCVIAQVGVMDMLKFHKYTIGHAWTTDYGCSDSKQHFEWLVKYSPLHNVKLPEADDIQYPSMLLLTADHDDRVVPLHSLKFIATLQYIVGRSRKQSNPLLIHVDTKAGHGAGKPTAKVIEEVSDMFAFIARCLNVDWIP
Protocol: Supplementary Material File S3. Cleavage by recombinant PREP
Recombinant human PREP, expressed in BL21 (DE3) cells as previously described, was […]
(Laboratory for Medicinal Chemistry, University of Antwerp) or vehicle control at pH 7.4 (0.1 M potassium phosphate, 1 mM EDTA and 5 mM DTT). 100 μM substrate ((pyr)-apelin-13, (pyr)-apelin-13(1-12), Ang II or α-MSH 1-13) or vehicle control (PBS) was added. The reaction was stopped by acidification (pH<3) with 0.1% TFA after different time periods (0 s, 30 s, 1 min, 5 min, 15 min, 30 min or 1 h) and samples were stored at -80 °C.
A search for product peaks of the different peptides was conducted.
1. Van Elzen, R.; Schoenmakers, E.; Brandt, I.; Van Der Veken, P.; Lambeir, A.M.
Ligand-induced conformational changes in prolyl oligopeptidase: A kinetic approach.

HUVEC = assay: Substrate cleavage in HUVEC, supernatant analysed by MALDI-TOF/TOF; type: in vitro ADME, human; conditions: PRCP-inhibited (1 µM compound 8o) or PRCP/ACE2-inhibited HUVEC compared with control or ACE2-inhibited (1 µM DX600) HUVEC, 100 µM (pyr)-apelin-13, n = 4
Protocol: (§7) The experiment was independently conducted 4 times. […] The supernatants were desalted and concentrated by use of C18 ZipTips (Merck-Millipore, Burlington, MA, USA) and eluted directly on the MALDI target in 70% acetonitrile/0.1% TFA. Subsequently, a MALDI matrix solution of 2.5 mg/mL α-cyano-4-hydroxycinnamic acid in 70% acetonitrile/0.1% TFA was applied on each spot, air-dried at room temperature, and the target was introduced into a 4800 plus MALDI TOF/TOF^TM Analyzer. Mass spectrometry (MS) spectra (mass range: 600–4000 Da) were acquired in positive reflector mode with a laser intensity of 5000. To confirm the identity of the most important peptides, MS/MS spectra were generated by use of collision induced dissociation with a laser intensity of 5500. Calibration was done during analysis using the 6-peptide mixture (AB Sciex, Framingham, MA, USA). Mass spectra were generated by use of the 4000 Series Explorer and analyzed by mMas. […] The ratio of the peak intensity of the cleaved substrate to the peak intensity of the intact substrate is an indication for the C-terminal cleavage of the substrates. To check for additional cleavage sites, a search for other product peaks was completed. Statistical analysis was performed using SPSS software version 27 (IBM). Two-way ANOVA analysis was conducted to examine the effect of the two independent variables (treatment duration and treatment option) on the ratio of the peak intensities.

HAoEC = assay: Substrate cleavage in HAoEC, supernatant analysed by MALDI-TOF/TOF; type: in vitro ADME, human; conditions: all inhibitor-treated HAoEC (1 µM compound 8o, 1 µM DX600 or both) compared with control, 100 µM (pyr)-apelin-13, n = 4
Protocol: as §7

Compound | ACE2 activity in the cell lysate versus vehicle control (ACE2 [1]) | ACE2 activity in the cell lysate versus vehicle control (ACE2 [2]) | PRCP activity in the cell lysate versus vehicle control (PRCP [3]) | PRCP activity in the supernatant versus vehicle control (PRCP [3]) | PRCP activity in the cell lysate versus vehicle control (PRCP [4]) | PRCP activity in the supernatant versus vehicle control (PRCP [4]) | cleaved bond [5] | fragment found [5] | cleaved bond [6] | fragment found [6] | Cleavage by recombinant human PREP (recombinant human PREP) | (pyr)-apelin-13(1–12) detected in supernatant after 24 h (HUVEC) | (pyr)-apelin-13(1–12) observed in supernatant after 24 h (HAoEC)
TNFα | No difference | No difference | no difference | increase in PRCP activity | no difference | increase in PRCP activity | – | – | – | – | – | – | –
Ac-SYSMEHFRWGKPV-NH₂ | – | – | – | – | – | – | P12-V13 | α-MSH 1-10 | P12-V13 | α-MSH 1-10 | – | – | –
IL-1β: pro-inflammatory stimulus, 5 ng/mL | No difference | No difference | no difference | increase in PRCP activity | no difference | increase in PRCP activity | – | – | – | – | – | – | –
CSCC[C@H](NC(=O)[C@@H]1CCCN1C(=O)CNC(=O)[C@H](CCCCN)NC(=O)[C@H](Cc1c[nH]cn1)NC(=O)[C@H](CO)NC(=O)[C@H](CC(C)C)NC(=O)[C@H](CCCNC(=N)N)NC(=O)[C@@H]1CCCN1C(=O)[C@H](CCCNC(=N)N)NC(=O)[C@@H]1CCC(=O)N1)C(=O)N1CCC[C@H]1C(=O)O [(pyr)-apelin-13(1–12)] | – | – | – | – | – | – | – | – | – | – | did not cleave | Significantly less | significantly less
